Results on two molecules are retold here after patent publication US4298739A, “Novel carbostyril derivatives” (priority 1977, dated 1981).

Data set [1] is described as follows: Acute toxicity test, oral administration to mice. Type of data set: in vivo. The conditions noted are these: mouse, in vivo, Male mice. Here is the method: The test compounds were administered orally to the mice and LD50 (mg/kg) of the compounds was determined.
For data set [2], the target named is T1, cyclic AMP phosphodiesterase (Oryctolagus cuniculus, UniProt G1ST54).
T1 construct: the supernatant was collected to use it as a crude enzyme solution; from tissue; host or cells: rabbit platelets (from platelet-rich plasma), 100,000 xg supernatant, DEAE-cellulose fraction
T1 sequence (G1ST54 1-1128): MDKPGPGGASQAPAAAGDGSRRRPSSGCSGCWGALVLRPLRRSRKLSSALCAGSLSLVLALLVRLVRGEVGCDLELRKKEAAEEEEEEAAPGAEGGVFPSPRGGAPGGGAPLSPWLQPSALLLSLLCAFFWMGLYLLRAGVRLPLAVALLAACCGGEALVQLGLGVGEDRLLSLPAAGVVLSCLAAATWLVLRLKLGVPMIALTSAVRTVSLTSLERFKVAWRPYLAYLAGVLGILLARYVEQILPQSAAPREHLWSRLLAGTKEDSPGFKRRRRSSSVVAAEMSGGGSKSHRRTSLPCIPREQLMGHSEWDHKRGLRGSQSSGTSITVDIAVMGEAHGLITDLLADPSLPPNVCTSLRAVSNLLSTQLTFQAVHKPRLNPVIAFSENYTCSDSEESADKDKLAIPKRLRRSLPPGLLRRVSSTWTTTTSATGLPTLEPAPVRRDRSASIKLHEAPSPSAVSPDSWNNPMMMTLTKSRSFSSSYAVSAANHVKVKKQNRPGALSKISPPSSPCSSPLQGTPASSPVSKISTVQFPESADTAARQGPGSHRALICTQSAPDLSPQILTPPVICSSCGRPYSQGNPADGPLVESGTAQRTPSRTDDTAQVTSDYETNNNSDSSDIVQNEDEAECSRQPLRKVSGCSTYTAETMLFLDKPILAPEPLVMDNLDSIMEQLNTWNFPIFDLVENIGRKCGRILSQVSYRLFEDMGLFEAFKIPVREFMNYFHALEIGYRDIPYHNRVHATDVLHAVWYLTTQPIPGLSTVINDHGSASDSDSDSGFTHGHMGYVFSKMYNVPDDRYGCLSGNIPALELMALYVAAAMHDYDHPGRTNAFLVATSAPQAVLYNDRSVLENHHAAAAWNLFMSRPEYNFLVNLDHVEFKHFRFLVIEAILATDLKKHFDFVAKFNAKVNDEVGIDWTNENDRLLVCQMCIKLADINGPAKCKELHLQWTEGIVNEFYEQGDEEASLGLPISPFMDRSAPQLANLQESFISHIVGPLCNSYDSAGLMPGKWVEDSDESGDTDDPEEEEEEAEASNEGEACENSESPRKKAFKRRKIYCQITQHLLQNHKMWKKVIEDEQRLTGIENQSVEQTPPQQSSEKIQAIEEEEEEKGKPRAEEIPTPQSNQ
The data set can be described thus: Obstructive action against cyclic AMP phosphodiesterase. Type of data set: biochemical, rabbit. Here is the method:
The obstructive action against cyclic AMP phosphodiesterase was measured according to the activity measuring method described in "Biochimica et Biophysica Acta", Vol. 429, pp. 485-497 (1976) and "Biochemical Medicine", Vol. 10, pp. 301-311 (1974).
That is, for determining the obstructive activity against cyclic AMP phosphodiesterase, 10 ml of a solution obtained by adding 1 mmol of MgCl2 into 50 mmol of tris-hydrochloric acid buffer with pH 7.4 was added to the platelets obtained by further centrifuging the abovesaid rabbit PRP at 3,000 r.p.m. for 10 minutes, and the suspended platelets were ground by a Teflon potter type homogenizer. This was followed by two times of freezing and thawing treatment and 300-second fracturing with 200 watt supersonic waves. After additional 60-minute centrifugation with 100,000 xg, the supernatant was collected to use it as a crude enzyme solution.
10 Milliliters of this crude buffer solution was added to a 1.5×20 cm DEAE-cellulose column which has previously been buffered with 50 mmol of tris-acetate buffer (pH 6.0), followed by washing and elution with 30 ml of 50 mmol tris-acetate buffer, and this buffer solution was subjected to linear gradient elution with 0 to 0.5 moles of sodium acetate-tris-acetatebuffer. The flow rate was 0.5 ml/min, and 5 ml of each fraction was batched out. […] This fraction was used as cyclic AMP phosphodiesterase.
0.1 Milliliter of an aqueous solution of each test compound of a specified concentration was mixed with 40 mmol of tris-hydrochloric acid buffer (pH 8.0, containing 50 μg of cow serum albumin and 4 mmol of MgCl2) containing predetermined 1.0 μmol of cyclic AMP (tritium cyclic AMP), and 0.2 ml of this mixed solution was used as substrate solution.
0.2 Milliliter of the above-prepared cyclic AMP phosphodiesterase of a predetermined concentration was added to said substrate solution and the mixture was reaction at 30° C. for 20 minutes, producing tritium 5'-AMP from the tritium cyclic AMP.
The reaction system was then immersed in boiling water for 2 minutes to stop the reaction, and then this reaction solution was cooled in ice water and, for converting the produced tritium 5'-AMP into tritium adenosine, the solution was added with 0.05 ml (1 mg/ml) of snake poison as 5'-nucleotidase and reacted at 30° C. for 10 minutes. The whole amount of this reaction solution was then added to a cation exchange resin (AG 500 W×4, 200-400 meshes, manufactured by Bio-Rad Co., column size: 0.5×1.5 cm), and the produced tritium anodesine alone was allowed to combine, washed with 6 ml of distilled water and eluted with 1.5 ml of 3 N-ammonia water. The whole quantity of the elutant was added with 10 ml of a triton-toluene type scintillator and the produced tritium adenosine was measured by a liquid scintillation counter to determine the phosphodiesterase activity.
In this way, the phosphodiesterase activation value (Vs) of the test compounds of the respective concentrations was determined, and the phosphodiesterase obstruction rate (%) was determined from said activation value (Vs) and control value (Vc) (obtained from water not containing any test compound) from the following formula: [formula]

The mark [3] stands for this setting: pH 8, read-out: phosphodiesterase obstruction rate.

Molecules are shown by their SMILES. Read-outs that look alike come from different tables or passages of the source.

`CC(=O)OC1CCC(N(C)C(=O)CCCOc2ccc3[nH]c(=O)ccc3c2)CC1` (stereo not drawn) [compound 3, 6-{3-[N-Methyl-N-(4-acetyloxycyclohexyl)aminocarbonyl]propoxy}carbostyril] yielded an LD50 in data set [1] of more than 1000 mg/kg. For the same molecule, the inhibition at 10 µM in data set [2] (10^-5 mole, 1.0 μmol cyclic AMP, pH 8.0, 30° C., read-out: phosphodiesterase obstruction rate) is 98.5%. In data set [2] (10^-6 mole, 1.0 μmol cyclic AMP, pH 8.0, 30° C., read-out: phosphodiesterase obstruction rate), the inhibition at 1 µM was 95.5%. The inhibition at 0.1 µM in data set [2] (10^-7 mole, 1.0 μmol cyclic AMP, pH 8.0, 30° C., read-out: phosphodiesterase obstruction rate) turned out to be 88.4%. Also, the inhibition at 0.01 µM in data set [2] (10^-8 mole, 1.0 μmol cyclic AMP, pH 8.0, 30° C., read-out: phosphodiesterase obstruction rate) was determined as 61.1%. Further, the inhibition at 0.001 µM in data set [2] (10^-9 mole, 1.0 μmol cyclic AMP, pH 8.0, 30° C., read-out: phosphodiesterase obstruction rate) turned out to be 13.4%.
On to `CN(C(=O)CCCOc1ccc2[nH]c(=O)ccc2c1)C1CCCCC1` [compound 16, 6-[3-(N-Methyl-N-cyclohexylaminocarbonyl)propoxy]carbostyril], for which the 50% lethal dose (LD50) in data set [1] was more than 1000 mg/kg. In data set [2] (setting [3]), the inhibition at 0.001 µM was 7.1%, the inhibition at 0.01 µM was 22.3%, the inhibition at 0.1 µM was determined as 79.3% and the inhibition at 1 µM came to 87.5%. Also, in data set [2] (setting [3]), the inhibition at 10 µM was determined as 80.5%.

For orientation: LD50 means the dose expected to kill half of the subjects tested.
